Consider two molecules from patent US11104933B1, “Compositions and methods for determining the presence of active leukocyte cells using an electrochemical assay” (Cleu Diagnostics, LLC, priority 2016, dated 2021).

Structures are written as SMILES.

Series [1] deals with leukocyte esterase (LE). In words: screen-printed electrode strip with monoester substrate, voltammograms at varying LE concentrations. The following applies: substrate screen-printed on electrode strip; 0.125 U/m to 0.35 U/ml LE (FIG. 7). It is filed as biochemical. The text has this:
In one embodiment, the substrate of the leukocyte esterase enzyme is screen-printed onto the surfaces of an electrode sensor strips using known and commercially-available techniques and materials.
Specifically, electrode strips were screen printed with the substrate having the structure as depicted in Formula V. The strips were contacted with varying concentrations of LE (i.e. 0.125 U/m to 0.35 U/ml LE).
The plot clearly indicates significant reduction peaks at about −0.17 V, which correspond to the redox reaction of hydroquinone molecules that are released upon cleavage of the monoester by leukocyte esterases at the ester active site. […] Based on this measured level, a determination can be made as to whether the patient's level of LE is high enough to indicate infection.

The test system of series [2] is leukocyte esterase (LE). In words: internally calibrated electrochemical continuous enzyme assay (ICECEA) with TAPTA as enzyme substrate. It is filed as biochemical. The note with it: LE concentrations 0-250 μg/L, amperometric current (FIG. 4). The method, then:
ICECEAs generally follow the following method as described in U.S. 201610040209. First, an enzyme substrate (e.g. an LE and/or HNE substrate of the present disclosure) is placed in a background electrolyte. Next, a reactant or product of an enzymatic reaction of the enzyme is added to the first enzyme substrate/background electrolyte, which creates what is described as a “first assay mixture.” Current flowing through an electrode of the electrochemical assay is then measured after the first assay mixture is formed. Next, the enzyme (e.g. LE and/or HNE) is added to the “first assay mixture” to create a “second assay mixture,” and the current is measured again over a predetermined time period. Enzyme activity is determined based on the change in current over time caused by the addition of the enzyme. […]
The ICECEA includes an electrochemical measuring device. […] The current is measured through the working electrode. […]
Generally, in an ICECEA, adding the reactant/product to the enzyme substrate (in electrolyte) in the electrochemical assay system includes the following steps. […] Current flowing through an electrode of the electrochemical assay system is measured after the first aliquot is added. One or more additional aliquots of the reactant/product are added to the mixture and current flowing through an electrode of the electrochemical assay system is measured again. […]

A word on the melting point: it is the temperature of the solid-liquid transition. Regarding `COC(=O)c1cncc(S(=O)(=O)N[C@@H](C)C(=O)Oc2ccc(O)cc2)c1` [monoester], the melting point is 113 to 116 °C. The “relation of reduction peaks to LE activity in the sample” value with leukocyte esterase (LE) [1] is listed as “directly related to the LE activity within the sample in a dose dependent manner”.
On to `Cc1ccc(S(=O)(=O)N[C@@H](C)C(=O)Oc2ccc(OC(=O)[C@H](C)NS(=O)(=O)c3ccc(C)cc3)cc2)cc1` [TAPTA, 4-((tosyl-L-alanyl)oxy)phenyl tosyl-L-alaninate], for which the “response of LE enzyme activity relative to LE concentration” value in the series on leukocyte esterase (LE) [2] is “linear response relative to LE concentration”.
